{"source": "patent US20230322785A1", "about": "“ADENOSINE A2A AND A2B RECEPTOR DUAL ANTAGONISTS FOR IMMUNO-ONCOLOGY” (Merck Sharp & Dohme LLC, priority 2020, published 2023)", "data": [{"molecular_target": "T1, human A2A adenosine receptor (Homo sapiens, UniProt P29274)", "T1 construct": "expressed in transfected cells; host or cells: HEK293 or CHO cells", "T1 sequence (P29274 whole entry)": "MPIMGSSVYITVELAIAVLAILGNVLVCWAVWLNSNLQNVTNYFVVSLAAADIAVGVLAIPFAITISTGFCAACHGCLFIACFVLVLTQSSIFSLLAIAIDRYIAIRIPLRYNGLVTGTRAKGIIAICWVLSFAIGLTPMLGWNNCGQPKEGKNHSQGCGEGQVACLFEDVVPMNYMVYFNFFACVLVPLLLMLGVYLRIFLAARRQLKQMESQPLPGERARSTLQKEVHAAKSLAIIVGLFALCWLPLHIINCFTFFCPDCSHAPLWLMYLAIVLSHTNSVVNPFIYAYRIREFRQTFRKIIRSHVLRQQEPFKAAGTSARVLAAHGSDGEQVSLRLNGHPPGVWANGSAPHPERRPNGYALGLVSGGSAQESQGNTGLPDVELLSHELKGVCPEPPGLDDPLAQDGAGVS", "test": "A2A binding affinity, Method (A): radioligand filtration binding with [3H]SCH58261", "settings": "membranes of HEK293 or CHO cells expressing the human receptor", "description": "Method (A) describes the procedure used to measure A2A binding affinity using radioligand binding. Method (B) describes the procedure used to measure A2A binding affinity using SPA technology. The method used to measure A2B binding affinity is also described below. The method used to determine the A2A IC50 value reported for each compound in the table is indicated next to the reported value. The A2B IC50 value measured using the A2B binding affinity assay is shown in the table next to the compound under the corresponding A2A value.\nThe A2A receptor affinity binding assay measured the amount of binding of a tritiated ligand with high affinity for the A2A adenosine receptor to membranes made from HEK293 or CHO cells recombinantly expressing the human A2A adenosine receptor, in the presence of varying concentrations of a compound of the invention. The data were generated using either filtration binding or a homogenous scintillation proximity assay (SPA).\nMethod (A): Measurement of A2A Binding Affinity Using Radioligand Binding\n148 µL (5 µg/mL) membranes (Perkin Elmer, Cat. No. RBHA2aM400UA) and 2 µL compounds of the invention to be tested (test compound) were transferred to individual wells of a 96-well polypropylene assay plate and incubated for 15 to 30 min at room temperature. [^3H] SCH58261 ((7-(2-phenylethyl)-5-amino-2-(2-furyl)-pyrazolo-[4,3-e]-1,2,4-triazolo[1,5-c]pyrimidine)) was diluted in assay buffer (50 mM Tris pH 7.4, 10 mM MgCl2, 0.005% Tween20) to a concentration of 4 nM and 50 µL transferred to each well of the assay plate. To define total and non-specific binding, wells containing 1% DMSO and 1 µM ZM241385 (Tocris Bioscience, Cat. No. 1036) respectively, were also included. The assay plate was incubated at room temperature for 60 min with agitation. Using a FilterMate Harvester® (Perkin Elmer), the contents of the assay plate were filtered through a UniFilter-96® PEI coated plate (Perkin Elmer Cat. No. 6005274 or 6005277). Filtering was achieved by aspirating the contents of the assay plate for 5 sec, then washing and aspirating the contents three times with ice-cooled wash buffer (50 mM Tris-HCl pH 7.4, 150 mM NaCl) and allowing the vacuum manifold to dry the plate for 30 sec. The filter plate was incubated for at least 1 h at 55° C. and allowed to dry. The bottom of the filter plate was sealed with backing tape. 40 µL Ultima Gold™ (Perkin Elmer, Cat. No. 6013329) was added to each well of the filter plate and the top of the plate was sealed with TopSeal-A PLUS® clear plate seal (Perkin Elmer, Cat. No. 6050185). The plate was incubated for at least 20 min, and then the amount of radioactivity remaining in each well was determined using a TopCount® (Perkin Elmer) scintillation counter. After normalization to total and non-specific binding, the percent effect at each compound concentration was calculated. The plot of percent effect versus the log of compound concentration was analyzed electronically using a 4-parameter logistic fit based on the Levenberg-Marquardt algorithm to generate IC50 values.", "units": {"IC50": "nM"}, "values": [{"molecule": "COc1cccc2c1nc(N)n1nc(CNC(=O)c3ccc(C(C)(C)O)cn3)nc21", "note": "[Example 4.2, N-((5-amino-7-methoxy-[1,2,4]triazolo[1,5-c]quinazolin-2-yl)methyl)-5-(2-hydroxypropan-2-yl)picolinamide]", "IC50": 1.4}, {"molecule": "COc1cccc2c1nc(N)n1nc(CCNC34CC(C(C)(C)O)(C3)C4)nc21", "note": "[Example 22.2, 2-(3-((2-(5-amino-7-methoxy-[1,2,4]triazolo[1,5-c]quinazolin-2-yl)ethyl)amino)bicyclo[1.1.1]pentan-1-yl)propan-2-ol]", "IC50": 12.3}, {"molecule": "COc1cc(F)cc2c1nc(N)n1nc(CNC(=O)c3ccc(C(C)(C)O)cc3Cl)nc21", "note": "[Entry 3.5]", "IC50": 2.5}, {"molecule": "COc1cc2nc(N)n3nc(CCNc4cnn(CC(C)(C)O)c4)nc3c2cc1F", "note": "[Example 24.2, 1-(4-((2-(5-amino-9-fluoro-8-methoxy-[1,2,4]triazolo[1,5-c]quinazolin-2-yl)ethyl)amino)-1H-pyrazol-1-yl)-2-methylpropan-2-ol]", "IC50": 26.5}, {"molecule": "COc1cccc2c1nc(N)n1nc(CNC(=O)c3ccc(C(C)(O)C(F)(F)F)cc3)nc21", "note": "(single isomer, unassigned) [Example 2.7A, (S or R)-N-((5-amino-7-methoxy-[1,2,4]triazolo[1,5-c]quinazolin-2-yl)methyl)-4-(1,1,1-trifluoro-2-hydroxypropan-2-yl)benzamide]", "IC50": 0.3}, {"molecule": "COc1cccc2c1nc(N)n1nc(CNC3CCc4c(nnn4C4CC(F)(F)C4)C3)nc21", "note": "(single isomer, unassigned) [Example 11.2A, (S or R)-2-(((1-(3,3-difluorocyclobutyl)-4,5,6,7-tetrahydro-1H-benzo[d][1,2,3]triazol-5-yl)amino)methyl)-7-methoxy-[1,2,4]triazolo[1,5-c]quinazolin-5-amine]", "IC50": 0.6}, {"molecule": "COc1cc(F)cc2c1nc(N)n1nc(CNC(C)(C)c3ccc(C(C)(C)O)cc3)nc21", "note": "[Example 11.9, 2-(4-(2-(((5-amino-9-fluoro-7-methoxy-[1,2,4]triazolo[1,5-c]quinazolin-2-yl)methyl)amino)propan-2-yl)phenyl)propan-2-ol]", "IC50": 1.1}, {"molecule": "COc1cccc2c1nc(N)n1nc(CNC(=O)c3ccc(C(O)(C(F)(F)F)C(F)(F)F)cc3)nc21", "note": "[Example 2.6, N-((5-amino-7-methoxy-[1,2,4]triazolo[1,5-c]quinazolin-2-yl)methyl)-4-(1,1,1,3,3,3-hexafluoro-2-hydroxypropan-2-yl)benzamide]", "IC50": 0.3}, {"molecule": "COc1cccc2c1nc(N)n1nc(CNC(=O)c3ncc(C(C)(C)O)cc3Br)nc21", "note": "[Example 4.11, N-((5-amino-7-methoxy-[1,2,4]triazolo[1,5-c]quinazolin-2-yl)methyl)-3-bromo-5-(2-hydroxypropan-2-yl)picolinamide]", "IC50": 1.5}, {"molecule": "COc1cccc2c1nc(N)n1nc(CN3CCO[C@@H](Cc4ccccc4)C3)nc21", "note": "[Example 8.1, (S)-2-((2-benzylmorpholino)methyl)-7-methoxy-[1,2,4]triazolo[1,5-c]quinazolin-5-amine]", "IC50": 6}, {"molecule": "COc1cc(F)cc2c1nc(N)n1nc(CNC(c3ccc(C(C)(C)O)cc3)C(F)(F)F)nc21", "note": "(single isomer, unassigned) [Example 25.3A, (S or R)-2-(4-(1-(((5-amino-9-fluoro-7-methoxy-[1,2,4]triazolo[1,5-c]quinazolin-2-yl)methyl)amino)-2,2,2-trifluoroethyl)phenyl)propan-2-ol]", "IC50": 19.3}, {"molecule": "COc1cccc2c1nc(N)n1nc(CN(C)Cc3ccc(S(N)(=O)=O)cc3)nc21", "note": "[Example 9.2, 4-((((5-amino-7-methoxy-[1,2,4]triazolo[1,5-c]quinazolin-2-yl)methyl)(methyl)amino)methyl)benzenesulfonamide]", "IC50": 2.5}, {"molecule": "COc1cccc2c1nc(N)n1nc(CNCc3ccc(S(N)(=O)=O)cc3)nc21", "note": "[Example 11.10, 4-((((5-amino-7-methoxy-[1,2,4]triazolo[1,5-c]quinazolin-2-yl)methyl)amino)methyl)benzenesulfonamide]", "IC50": 1.4}, {"molecule": "COc1cccc2c1nc(N)n1nc(CNC(=O)c3ccc(C(C)(O)C(F)(F)F)cc3)nc21", "note": "(single isomer, unassigned) [Example 2.7B, (R or S)-N-((5-amino-7-methoxy-[1,2,4]triazolo[1,5-c]quinazolin-2-yl)methyl)-4-(1,1,1-trifluoro-2-hydroxypropan-2-yl)benzamide]", "IC50": 0.5}, {"molecule": "COc1cccc2c1nc(N)n1nc(CCNc3cnn(C)c3)nc21", "note": "[Example 23.2, 7-methoxy-2-(2-((1-methyl-1H-pyrazol-4-yl)amino)ethyl)-[1,2,4]triazolo[1,5-c]quinazolin-5-amine]", "IC50": 4.2}, {"molecule": "COc1cc(F)cc2c1nc(N)n1nc(CNC(c3ccc(C(C)(C)O)cc3)C(F)(F)F)nc21", "note": "(single isomer, unassigned) [Example 25.3B, (R or S)-2-(4-(1-(((5-amino-9-fluoro-7-methoxy-[1,2,4]triazolo[1,5-c]quinazolin-2-yl)methyl)amino)-2,2,2-trifluoroethyl)phenyl)propan-2-ol]", "IC50": 29.2}, {"molecule": "COc1cc(F)cc2c1nc(N)n1nc(CCN3Cc4cnc(C(C)C)n4CC3=O)nc21", "note": "[Example 26.3, 7-(2-(5-amino-9-fluoro-7-methoxy-[1,2,4]triazolo[1,5-c]quinazolin-2-yl)ethyl)-3-isopropyl-7,8-dihydroimidazo[1,5-a]pyrazin-6(5H)-one]", "IC50": 6.4}, {"molecule": "COc1cccc2c1nc(N)n1nc(CNC3CCc4c(nnn4C4CC(F)(F)C4)C3)nc21", "note": "(single isomer, unassigned) [Example 11.2B, (R or S)-2-(((1-(3,3-difluorocyclobutyl)-4,5,6,7-tetrahydro-1H-benzo[d][1,2,3]triazol-5-yl)amino)methyl)-7-methoxy-[1,2,4]triazolo[1,5-c]quinazolin-5-amine]", "IC50": 3.4}, {"molecule": "COc1cccc2c1nc(N)n1nc(CNC(=O)c3ccc(C(C)(C)O)cc3)nc21", "note": "[Example 2.1, N-((5-amino-7-methoxy-[1,2,4]triazolo[1,5-c]quinazolin-2-yl)methyl)-4-(2-hydroxypropan-2-yl)benzamide]", "IC50": 0.6}]}, {"molecular_target": "T1, human A2A adenosine receptor", "test": "A2A binding affinity, Method (B): scintillation proximity assay (SPA) with [3H]SCH58261", "settings": "membranes of HEK293 or CHO cells expressing the human receptor", "procedure,_shortened": "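Membranes from HEK293 or CHO cells expressing the receptor were pretreated with 20 µg/mL adenosine deaminase for 15 min, then bound to WGA SPA beads. [3H]SCH58261 was added at 1.25 nM in Ca/Mg-free DPBS with 10 mM MgCl2, incubated 1 h at RT, then settled 1 h. Non-specific binding used 1 µM CGS 15943. IC50 came from 4-parameter logistic fits.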", "units": {"IC50": "nM"}, "values": [{"molecule": "COc1cccc2c1nc(N)n1nc(CN(Cc3ccc(OC4CCCCC4)nc3)CC3CC3)nc21", "note": "[Example 16.6, 2-((((6-(cyclohexyloxy)pyridin-3-yl)methyl)(cyclopropylmethyl)amino)methyl)-7-methoxy-[1,2,4]triazolo[1,5-c]quinazolin-5-amine]", "IC50": 6.6}, {"molecule": "COc1cccc(CN(Cc2nc3c4cccc(OC)c4nc(N)n3n2)CC2CC2)c1", "note": "[Example 16.15, 2-(((cyclopropylmethyl)(3-methoxybenzyl)amino)methyl)-7-methoxy-[1,2,4]triazolo[1,5-c]quinazolin-5-amine]", "IC50": 3.5}, {"molecule": "COc1cccc2c1nc(N)n1nc(CNC(=O)NCc3ccc(Cl)cc3)nc21", "note": "[Example 20.4, 1-((5-amino-7-methoxy-[1,2,4]triazolo[1,5-c]quinazolin-2-yl)methyl)-3-(4-chlorobenzyl)urea]", "IC50": 5.7}, {"molecule": "C=CCN(Cc1ccc(C(F)(F)F)cc1)Cc1nc2c3cccc(OC)c3nc(N)n2n1", "note": "[Example 21.1, 2-((allyl(4-(trifluoromethyl)benzyl)amino)methyl)-7-methoxy-[1,2,4]triazolo[1,5-c]quinazolin-5-amine]", "IC50": 11.1}, {"molecule": "COc1cccc2c1nc(N)n1nc(CN(Cc3ccc(C(F)(F)F)cc3)C[C@@H]3CO3)nc21", "note": "[Example 18.1, (R)-7-methoxy-2-(((oxiran-2-ylmethyl)(4-(trifluoromethyl)benzyl)amino)methyl)-[1,2,4]triazolo[1,5-c]quinazolin-5-amine]", "IC50": 20.2}, {"molecule": "COCc1ccc(CNCc2nc3c4cccc(OC)c4nc(N)n3n2)cc1", "note": "[Example 7.7, 7-methoxy-2-(((4-(methoxymethyl)benzyl)amino)methyl)-[1,2,4]triazol[1,5-c]quinazolin-5-amine]", "IC50": 2.2}]}]}
